Test results published in paper PMC4832243, “Discovery of Potent VEGFR-2 Inhibitors based on Furopyrimidine and Thienopyrimidne Scaffolds as Cancer Targeting Agents” (Scientific Reports, 2016).

Tests used:
VEGFR-2 (KDR) = biological target: T1, VEGFR-2 (KDR) (Homo sapiens, UniProt P35968); experiment: In vitro VEGFR-2 tyrosine kinase activity (Kinase-Glo Plus luminescence, BPS Bioscience); format: biochemical; conditions: single dose concentration of 10 μM
T1 construct: purchased BPS Bioscience 40301
T1 sequence (P35968 20-1356): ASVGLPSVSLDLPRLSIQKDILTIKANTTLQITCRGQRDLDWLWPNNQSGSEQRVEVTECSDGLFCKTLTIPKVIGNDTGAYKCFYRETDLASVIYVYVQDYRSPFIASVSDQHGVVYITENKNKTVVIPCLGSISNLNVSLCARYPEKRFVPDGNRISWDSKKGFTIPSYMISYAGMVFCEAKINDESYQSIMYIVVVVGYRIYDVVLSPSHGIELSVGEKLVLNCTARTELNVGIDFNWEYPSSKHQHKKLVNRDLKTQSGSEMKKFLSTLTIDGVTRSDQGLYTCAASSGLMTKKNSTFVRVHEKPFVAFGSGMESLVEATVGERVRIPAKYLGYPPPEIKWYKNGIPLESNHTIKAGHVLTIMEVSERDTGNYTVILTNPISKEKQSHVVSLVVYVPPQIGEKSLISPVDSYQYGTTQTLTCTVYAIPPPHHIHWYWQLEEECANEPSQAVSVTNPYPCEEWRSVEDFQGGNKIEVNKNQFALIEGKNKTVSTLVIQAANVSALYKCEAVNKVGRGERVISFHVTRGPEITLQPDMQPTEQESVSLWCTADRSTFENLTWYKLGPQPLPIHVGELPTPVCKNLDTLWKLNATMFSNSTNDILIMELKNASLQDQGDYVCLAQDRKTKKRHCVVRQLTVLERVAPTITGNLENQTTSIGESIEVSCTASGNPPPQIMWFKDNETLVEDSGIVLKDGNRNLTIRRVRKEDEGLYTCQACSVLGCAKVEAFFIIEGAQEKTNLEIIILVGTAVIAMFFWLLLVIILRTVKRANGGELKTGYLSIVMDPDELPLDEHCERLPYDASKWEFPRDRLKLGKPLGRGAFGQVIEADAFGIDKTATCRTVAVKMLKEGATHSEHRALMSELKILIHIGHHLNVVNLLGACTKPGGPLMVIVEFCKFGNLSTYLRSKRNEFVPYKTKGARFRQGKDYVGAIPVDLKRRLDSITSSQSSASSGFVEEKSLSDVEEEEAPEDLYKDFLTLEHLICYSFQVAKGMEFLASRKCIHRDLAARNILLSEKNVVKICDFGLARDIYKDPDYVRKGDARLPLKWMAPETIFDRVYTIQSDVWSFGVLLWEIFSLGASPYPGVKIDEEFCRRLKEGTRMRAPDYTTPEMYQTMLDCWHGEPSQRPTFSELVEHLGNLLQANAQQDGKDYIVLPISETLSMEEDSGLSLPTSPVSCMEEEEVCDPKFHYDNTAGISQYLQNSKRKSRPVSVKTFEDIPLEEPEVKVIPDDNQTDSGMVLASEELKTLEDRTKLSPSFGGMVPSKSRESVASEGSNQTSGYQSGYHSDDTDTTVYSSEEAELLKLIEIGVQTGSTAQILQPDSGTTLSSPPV

CCRF-CEM = experiment: NCI 60 cell line panel (SRB), CCRF-CEM; format: cell-based; conditions: Homo sapiens, Leukemia, single dose of 10 μM, read-out: Cell Growth Percent
HL-60(TB) = experiment: NCI 60 cell line panel (SRB), HL-60(TB); format: cell-based; conditions: Homo sapiens, Leukemia, single dose of 10 μM, read-out: Cell Growth Percent
HOP-92 = experiment: NCI 60 cell line panel (SRB), HOP-92; format: cell-based; conditions: Homo sapiens; HOP-92, Non-Small Cell Lung Cancer; single dose of 10 μM; read-out: Cell Growth Percent
NCI-H23 = experiment: NCI 60 cell line panel (SRB), NCI-H23; format: cell-based; conditions: Homo sapiens; NCI-H23, Non-Small Cell Lung Cancer; single dose of 10 μM; read-out: Cell Growth Percent
HCC-2998 = experiment: NCI 60 cell line panel (SRB), HCC-2998; format: cell-based; conditions: Homo sapiens; HCC-2998, Colon Cancer; single dose of 10 μM; read-out: Cell Growth Percent
HCT-116 = experiment: NCI 60 cell line panel (SRB), HCT-116; format: cell-based; conditions: Homo sapiens; HCT-116, Colon Cancer; single dose of 10 μM; read-out: Cell Growth Percent
SF-295 = experiment: NCI 60 cell line panel (SRB), SF-295; format: cell-based; conditions: Homo sapiens; SF-295, CNS Cancer; single dose of 10 μM; read-out: Cell Growth Percent
SNB-75 = experiment: NCI 60 cell line panel (SRB), SNB-75; format: cell-based; conditions: Homo sapiens; SNB-75, CNS Cancer; single dose of 10 μM; read-out: Cell Growth Percent
LOX IMVI = experiment: NCI 60 cell line panel (SRB), LOX IMVI; format: cell-based; conditions: Homo sapiens, Melanoma, single dose of 10 μM, read-out: Cell Growth Percent
MDA-MB-435 = experiment: NCI 60 cell line panel (SRB), MDA-MB-435; format: cell-based; conditions: Homo sapiens; MDA-MB-435, Melanoma; single dose of 10 μM; read-out: Cell Growth Percent
SK-MEL-5 = experiment: NCI 60 cell line panel (SRB), SK-MEL-5; format: cell-based; conditions: Homo sapiens; SK-MEL-5, Melanoma; single dose of 10 μM; read-out: Cell Growth Percent
UACC-257 = experiment: NCI 60 cell line panel (SRB), UACC-257; format: cell-based; conditions: Homo sapiens; UACC-257, Melanoma; single dose of 10 μM; read-out: Cell Growth Percent
IGROV1 = experiment: NCI 60 cell line panel (SRB), IGROV1; format: cell-based; conditions: Homo sapiens, IGROV-1; IGROV1, Ovarian Cancer; single dose of 10 μM; read-out: Cell Growth Percent
OVCAR-4 = experiment: NCI 60 cell line panel (SRB), OVCAR-4; format: cell-based; conditions: Homo sapiens; OVCAR-4, Ovarian Cancer; single dose of 10 μM; read-out: Cell Growth Percent
OVCAR-5 = experiment: NCI 60 cell line panel (SRB), OVCAR-5; format: cell-based; conditions: Homo sapiens; OVCAR-5, Ovarian Cancer; single dose of 10 μM; read-out: Cell Growth Percent
NCI/ADR-RES = experiment: NCI 60 cell line panel (SRB), NCI/ADR-RES; format: cell-based; conditions: Homo sapiens, Ovarian Cancer, single dose of 10 μM, read-out: Cell Growth Percent
786-0 = experiment: NCI 60 cell line panel (SRB), 786-0; format: cell-based; conditions: Homo sapiens; 786-0, Renal Cancer; single dose of 10 μM; read-out: Cell Growth Percent
SN12C = experiment: NCI 60 cell line panel (SRB), SN12C; format: cell-based; conditions: Homo sapiens, Renal Cancer, single dose of 10 μM, read-out: Cell Growth Percent
TK-10 = experiment: NCI 60 cell line panel (SRB), TK-10; format: cell-based; conditions: Homo sapiens; TK-10, Renal Cancer; single dose of 10 μM; read-out: Cell Growth Percent
HS 578T = experiment: NCI 60 cell line panel (SRB), HS 578T; format: cell-based; conditions: Homo sapiens, Breast Cancer, single dose of 10 μM, read-out: Cell Growth Percent
BT-549 = experiment: NCI 60 cell line panel (SRB), BT-549; format: cell-based; conditions: Homo sapiens; BT-549, Breast Cancer; single dose of 10 μM; read-out: Cell Growth Percent
T-47D = experiment: NCI 60 cell line panel (SRB), T-47D; format: cell-based; conditions: Homo sapiens, T47D, Breast Cancer, single dose of 10 μM, read-out: Cell Growth Percent
MDA-MB-468 = experiment: NCI 60 cell line panel (SRB), MDA-MB-468; format: cell-based; conditions: Homo sapiens; MDA-MB-468, Breast Cancer; single dose of 10 μM; read-out: Cell Growth Percent

| SMILES | inhibition at 10 µM (VEGFR-2 (KDR)) [%] | activity at 10 µM (CCRF-CEM) [%] | activity at 10 µM (HL-60(TB)) [%] | activity at 10 µM (HOP-92) [%] | activity at 10 µM (NCI-H23) [%] | activity at 10 µM (HCC-2998) [%] | activity at 10 µM (HCT-116) [%] | activity at 10 µM (SF-295) [%] | activity at 10 µM (SNB-75) [%] | activity at 10 µM (LOX IMVI) [%] | activity at 10 µM (MDA-MB-435) [%] | activity at 10 µM (SK-MEL-5) [%] | activity at 10 µM (UACC-257) [%] | activity at 10 µM (IGROV1) [%] | activity at 10 µM (OVCAR-4) [%] | activity at 10 µM (OVCAR-5) [%] | activity at 10 µM (NCI/ADR-RES) [%] | activity at 10 µM (786-0) [%] | activity at 10 µM (SN12C) [%] | activity at 10 µM (TK-10) [%] | further results |
| --- | --- | --- | --- | --- | --- | --- | --- | --- | --- | --- | --- | --- | --- | --- | --- | --- | --- | --- | --- | --- | --- |
| CCOC(=O)c1c(C)oc2ncnc(Nc3ccc(C(=O)Nc4cccc(Cl)c4)cc3)c12 [Compound 14a] | 5 | 93.8 | 105 | 92 | 100 | 105 | 85.5 | 115 | 105 | 93.1 | 106 | 92.2 | 117 | 105 | 98 | 116 | 99.4 | 96.3 | 94.1 | 102 | activity at 10 µM (HS 578T): 107%; activity at 10 µM (BT-549): 87.6%; activity at 10 µM (T-47D): 98.2%; activity at 10 µM (MDA-MB-468): 90.9%; melting point: 226 to 230 °C |
| CCOC(=O)c1c(C)oc2ncnc(Nc3ccc(NC(=O)Nc4ccc(CC)cc4)cc3)c12 [Compound 15i] | 23 | 93.7 | 103 | 94.3 | 90.7 | 114 | 78.7 | 109 | 80.5 | 100 | 102 | 93.7 | 111 | 110 | 105 | 107 | 97.2 | 99.8 | 107 | 112 | activity at 10 µM (HS 578T): 97.7%; activity at 10 µM (BT-549): 84.4%; activity at 10 µM (T-47D): 78.2%; activity at 10 µM (MDA-MB-468): 128%; melting point: 242 to 246 °C |
| COc1cccc(NC(=O)Nc2ccc(Nc3ncnc4sc5c(c34)CCCC5)cc2)c1 [Compound 20c] | 67 | 94.6 | 91.1 | 118 | 104 | 118 | 91 | 99 | 62.7 | 94.4 | 98.5 | 92.3 | 94.9 | 106 | 88.8 | 106 | 106 | 100 | 91 | 129 | activity at 10 µM (HS 578T): 74.4%; activity at 10 µM (BT-549): 85.8%; activity at 10 µM (T-47D): 66.4%; activity at 10 µM (MDA-MB-468): 114%; melting point: 206 to 210 °C |
| CCOC(=O)c1c(C)oc2ncnc(Nc3ccc(C(=O)NCCc4ccccc4)cc3)c12 [Compound 14e] | 10 | 80.9 | 87.6 | 61.5 | 81.8 | 91.4 | 64.7 | 90.4 | 7 | 75.2 | 87.5 | 85.6 | 79.6 | 102 | 45.5 | 110 | 76.9 | 74.9 | 99.3 | 102 | activity at 10 µM (HS 578T): 51.2%; activity at 10 µM (BT-549): 67.3%; activity at 10 µM (T-47D): 65.1%; activity at 10 µM (MDA-MB-468): 90.7%; melting point: 176 to 180 °C |
| CCOC(=O)c1c(C)oc2ncnc(Nc3ccc(C(=O)Nc4ccc(OC)cc4)cc3)c12 [Compound 14b] | 8 | 89.1 | 88.6 | 78.8 | 95.6 | 114 | 85.1 | 99.3 | 87.2 | 93.2 | 106 | 87.9 | 94.7 | 108 | 95.6 | 114 | 88.7 | 92.1 | 103 | 102 | activity at 10 µM (HS 578T): 83.7%; activity at 10 µM (BT-549): 61.9%; activity at 10 µM (T-47D): 91%; activity at 10 µM (MDA-MB-468): 102%; melting point: 218 to 222 °C |
| O=C(Nc1ccc(Cl)cc1)Nc1ccc(Oc2ncnc3sc4c(c23)CCCC4)cc1 [Compound 21d] | 46 | 77.9 | 100 | 102 | 87.4 | 107 | 82.6 | 101 | 70.8 | 84.8 | 93.7 | 78.4 | 91.4 | 108 | 93.6 | 113 | 85 | 108 | 86.5 | 88.3 | activity at 10 µM (HS 578T): 74.7%; activity at 10 µM (BT-549): 112%; activity at 10 µM (T-47D): 73.3%; activity at 10 µM (MDA-MB-468): 103%; melting point: > 300 °C |
